# Reference: PMC9090415, “Discovery of small molecule inhibitors of Plasmodium falciparum apicoplast DNA polymerase” (Journal of Enzyme Inhibition and Medicinal Chemistry, 2022)
# Target: P. falciparum apicoplast DNA polymerase (Pf-apPOL) (Plasmodium falciparum, UniProt Q8ILY1)
# Experiment: Fluorescence-based high-throughput DNA polymerase assay (molecular beacon), primary screen and dose-response;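 on % inhibition ApPOL 90': test concentration in µM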;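 on % inhibition apPOL 180': test concentration in µM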
# Assay type: biochemical
# Outline: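 Single-point screening used 10 µM compound with 20 nM polymerase, 20 nM hairpin substrate and 6 µM dNTPs for 90 min at 25 °C. Confirmatory titrations (2.5–80 µM) followed fluorescence at three times, and IC50 was derived from a fit including a cooperativity term n.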
# P. falciparum apicoplast DNA polymerase (Pf-apPOL), sequence (Q8ILY1 entry or part of it): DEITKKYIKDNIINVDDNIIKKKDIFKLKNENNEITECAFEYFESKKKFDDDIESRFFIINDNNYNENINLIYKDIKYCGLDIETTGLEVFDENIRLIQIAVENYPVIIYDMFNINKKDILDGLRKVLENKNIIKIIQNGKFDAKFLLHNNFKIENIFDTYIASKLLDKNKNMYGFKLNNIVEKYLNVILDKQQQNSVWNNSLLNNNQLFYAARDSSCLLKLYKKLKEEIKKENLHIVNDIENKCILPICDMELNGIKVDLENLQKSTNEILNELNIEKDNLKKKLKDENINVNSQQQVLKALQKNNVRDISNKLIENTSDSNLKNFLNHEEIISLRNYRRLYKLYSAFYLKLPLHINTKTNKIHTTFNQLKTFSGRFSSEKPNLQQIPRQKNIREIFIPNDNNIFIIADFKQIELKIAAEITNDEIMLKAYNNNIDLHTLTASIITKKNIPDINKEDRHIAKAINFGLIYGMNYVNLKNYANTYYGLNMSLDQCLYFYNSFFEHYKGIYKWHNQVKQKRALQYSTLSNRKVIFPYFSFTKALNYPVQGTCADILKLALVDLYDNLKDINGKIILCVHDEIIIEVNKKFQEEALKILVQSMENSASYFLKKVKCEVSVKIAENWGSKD
compound,measurement,setting,value
"CCN1C(=O)C(=Cc2cccc(OC)c2O)SC1=S [Molecule 78, CCN1C(=S)SC(=Cc2cccc(c2O)OC)C1=O]",% inhibition Apo pol 10',DRC-1; 10'; concentration 2.5,-5.558%
same,% inhibition Apo pol 10',DRC-1; 10'; concentration 5,-7.622%
same,% inhibition Apo pol 10',DRC-1; 10'; concentration 10,-2.049%
same,% inhibition Apo pol 10',DRC-1; 10'; concentration 20,2.662%
same,% inhibition Apo pol 10',DRC-1; 10'; concentration 40,14.6723%
same,% inhibition Apo pol 10',DRC-1; 10'; concentration 80,44.8696%
same,% inhibition Apol 90',DRC-1; 90'; concentration 2.5,-2.637%
same,% inhibition Apol 90',DRC-1; 90'; concentration 5,-1.279%
same,% inhibition Apol 90',DRC-1; 90'; concentration 10,7.892%
same,% inhibition Apol 90',DRC-1; 90'; concentration 20,13.9946%
same,% inhibition Apol 90',DRC-1; 90'; concentration 40,28.6027%
same,% inhibition Apol 90',DRC-1; 90'; concentration 80,61.7186%
same,% inhibition apPOL 180',DRC-1; 180'; concentration 2.5,5.183%
same,% inhibition apPOL 180',DRC-1; 180'; concentration 5,11.9919%
same,% inhibition apPOL 180',DRC-1; 180'; concentration 10,27.7441%
same,% inhibition apPOL 180',DRC-1; 180'; concentration 20,33.831%
same,% inhibition apPOL 180',DRC-1; 180'; concentration 40,51.4318%
same,% inhibition apPOL 180',DRC-1; 180'; concentration 80,79.6969%
same,% inhibition Apo pol 5',"DRC-2, 5', concentration 2.5 (unit not given)",8%
same,% inhibition ApPOL 90',"DRC-2, 90', concentration 20 (unit not given)",8%
same,% inhibition Apo pol 5',DRC-2; 5'; concentration 2.5,8%
same,% inhibition Apo pol 5',DRC-2; 5'; concentration 5,3.24%
same,% inhibition Apo pol 5',DRC-2; 5'; concentration 10,14%
same,% inhibition Apo pol 5',DRC-2; 5'; concentration 20,21%
same,% inhibition Apo pol 5',DRC-2; 5'; concentration 40,38%
same,% inhibition Apo pol 5',DRC-2; 5'; concentration 80,40%
same,% inhibition Apol 40',DRC-2; 40'; concentration 2.5,2.6%
same,% inhibition Apol 40',DRC-2; 40'; concentration 5,-11%
same,% inhibition Apol 40',DRC-2; 40'; concentration 10,9%
same,% inhibition Apol 40',DRC-2; 40'; concentration 20,12%
same,% inhibition Apol 40',DRC-2; 40'; concentration 40,39%
same,% inhibition Apol 40',DRC-2; 40'; concentration 80,41%
same,% inhibition ApPOL 90',DRC-2; 90'; concentration 2.5,-1.1%
same,% inhibition ApPOL 90',DRC-2; 90'; concentration 5,-22%
same,% inhibition ApPOL 90',DRC-2; 90'; concentration 10,5.68%
same,% inhibition ApPOL 90',DRC-2; 90'; concentration 20,8%
same,% inhibition ApPOL 90',DRC-2; 90'; concentration 40,35%
same,% inhibition ApPOL 90',DRC-2; 90'; concentration 80,36%
same,% inhibition apPOL 180',DRC-2; 180'; concentration 2.5,-5.52%
same,% inhibition apPOL 180',DRC-2; 180'; concentration 5,-102%
same,% inhibition apPOL 180',DRC-2; 180'; concentration 10,-2.72%
same,% inhibition apPOL 180',DRC-2; 180'; concentration 20,-1.34%
same,% inhibition apPOL 180',DRC-2; 180'; concentration 40,23%
same,% inhibition apPOL 180',DRC-2; 180'; concentration 80,25%
same,DNA Pol,"primary screen value of the 186 hits; unit not given; 90 min, 10 µM",43
same,DNA Pol,"primary screen value, head ""DNA Pol"", unit not given; 90 min, 10 µM",43
"Cc1ccccc1NC(=O)Cn1ccc2c(=O)[nH]ccc21 [Molecule 50, O=C(Cn1ccc2c1cc[nH]c2=O)Nc1ccc(cc1)C]",DNA Pol,"'DNA Pol' of the 186 hits list (screen value); 90 min, 10 µM",47
same,% inhibition Apo pol 10',DRC-1; 10'; conc 2.5,6.138%
same,% inhibition Apo pol 10',DRC-1; 10'; conc 5,25.5303%
same,% inhibition Apo pol 10',DRC-1; 10'; conc 10,50.7772%
same,% inhibition Apo pol 10',DRC-1; 10'; conc 20,84.6667%
same,% inhibition Apo pol 10',DRC-1; 10'; conc 40,88.6284%
same,% inhibition Apo pol 10',DRC-1; 10'; conc 80,86.1182%
same,% inhibition Apol 90',DRC-1; 90'; conc 2.5,0%
same,% inhibition Apol 90',DRC-1; 90'; conc 5,12.4445%
same,% inhibition Apol 90',DRC-1; 90'; conc 10,34.9563%
same,% inhibition Apol 90',DRC-1; 90'; conc 20,76.8341%
same,% inhibition Apol 90',DRC-1; 90'; conc 40,88.9511%
same,% inhibition Apol 90',DRC-1; 90'; conc 80,91.6504%
same,% inhibition apPOL 180',DRC-1; 180'; conc 2.5,-5.117%
same,% inhibition apPOL 180',DRC-1; 180'; conc 5,1.53%
same,% inhibition apPOL 180',DRC-1; 180'; conc 10,18.0817%
same,% inhibition apPOL 180',DRC-1; 180'; conc 20,64.1474%
same,% inhibition apPOL 180',DRC-1; 180'; conc 40,85.8042%
same,% inhibition apPOL 180',DRC-1; 180'; conc 80,93.6476%
same,% inhibition Apo pol 5',DRC-2; 5'; conc 2.5,8%
same,% inhibition Apo pol 5',DRC-2; 5'; conc 5,16%
same,% inhibition Apo pol 5',DRC-2; 5'; conc 10,39%
same,% inhibition Apo pol 5',DRC-2; 5'; conc 20,47%
same,% inhibition Apo pol 5',DRC-2; 5'; conc 40,49%
same,% inhibition Apo pol 5',DRC-2; 5'; conc 80,42%
same,% inhibition Apo pol 5',DRC-2; 5'; concentration 5,16%
same,% inhibition Apol 40',DRC-2; 40'; conc 2.5,5%
same,% inhibition Apol 40',DRC-2; 40'; conc 5,16%
same,% inhibition Apol 40',DRC-2; 40'; conc 10,44%
same,% inhibition Apol 40',DRC-2; 40'; conc 20,64%
same,% inhibition Apol 40',DRC-2; 40'; conc 40,70%
same,% inhibition Apol 40',DRC-2; 40'; conc 80,67%
same,% inhibition Apol 40',DRC-2; 40'; concentration 5,16%
same,% inhibition ApPOL 90',DRC-2; 90'; conc 2.5,0.827%
same,% inhibition ApPOL 90',DRC-2; 90'; conc 5,13%
same,% inhibition ApPOL 90',DRC-2; 90'; conc 10,41%
same,% inhibition ApPOL 90',DRC-2; 90'; conc 20,65%
same,% inhibition ApPOL 90',DRC-2; 90'; conc 40,75%
same,% inhibition ApPOL 90',DRC-2; 90'; conc 80,73%
same,% inhibition apPOL 180',DRC-2; 180'; conc 2.5,-4%
same,% inhibition apPOL 180',DRC-2; 180'; conc 5,2.7%
same,% inhibition apPOL 180',DRC-2; 180'; conc 10,29%
same,% inhibition apPOL 180',DRC-2; 180'; conc 20,60%
same,% inhibition apPOL 180',DRC-2; 180'; conc 40,78%
same,% inhibition apPOL 180',DRC-2; 180'; conc 80,78%
same,% inhibition apPOL 180',DRC-2; 180'; concentration 40,78%
same,% inhibition apPOL 180',DRC-2; 180'; concentration 80,78%
same,DNA Pol,"primary screen value, ""DNA Pol""; 90 min, 10 µM",47
COc1cccc(Oc2c(C(F)(F)F)oc3cc(OC(=O)N(C)C)ccc3c2=O)c1 [Molecule 52],IC50,"supplemental file 2, sheet IC50 nontoxic compounds; Pf-apPOL",40.6 µM
"O=C(Nc1nnc(-c2ccno2)o1)c1ccc2ncsc2c1 [Molecule 62, O=C(c1ccc2c(c1)scn2)Nc1nnc(o1)c1ccno1]",DNA Pol,"'DNA Pol'; screening value, unit not given; 90 min, 10 µM",57
same,% inhibition Apo pol 10',DRC-1; 10'; concentration 2.5,10.861%
same,% inhibition Apo pol 10',DRC-1; 10'; concentration 5,15.6525%
same,% inhibition Apo pol 10',DRC-1; 10'; concentration 10,33.6921%
same,% inhibition Apo pol 10',DRC-1; 10'; concentration 20,64.2838%
same,% inhibition Apo pol 10',DRC-1; 10'; concentration 40,78.1502%
same,% inhibition Apo pol 10',DRC-1; 10'; concentration 80,81.399%
same,% inhibition Apol 90',DRC-1; 90'; concentration 2.5,-2.7392%
same,% inhibition Apol 90',DRC-1; 90'; concentration 5,1.406%
same,% inhibition Apol 90',DRC-1; 90'; concentration 10,10.5152%
same,% inhibition Apol 90',DRC-1; 90'; concentration 20,33.263%
same,% inhibition Apol 90',DRC-1; 90'; concentration 40,51.9867%
same,% inhibition Apol 90',DRC-1; 90'; concentration 80,68.6824%
same,% inhibition apPOL 180',DRC-1; 180'; concentration 2.5,-12.5523%
same,% inhibition apPOL 180',DRC-1; 180'; concentration 5,-8.9419%
same,% inhibition apPOL 180',DRC-1; 180'; concentration 10,-4.993%
same,% inhibition apPOL 180',DRC-1; 180'; concentration 20,10.6012%
same,% inhibition apPOL 180',DRC-1; 180'; concentration 40,29.0771%
same,% inhibition apPOL 180',DRC-1; 180'; concentration 80,50.4309%
same,% inhibition Apo pol 5',"DRC-2, 5', concentration 2.5",9%
same,% inhibition Apo pol 5',"DRC-2, 5', concentration 5",11%
same,% inhibition Apo pol 5',"DRC-2, 5', concentration 10",38%
same,% inhibition Apo pol 5',"DRC-2, 5', concentration 20",39%
same,% inhibition Apo pol 5',"DRC-2, 5', concentration 40",37%
same,% inhibition Apo pol 5',"DRC-2, 5', concentration 80",28%
same,% inhibition Apol 40',"DRC-2, 40', concentration 2.5",6.5%
same,% inhibition Apol 40',"DRC-2, 40', concentration 5",8%
same,% inhibition Apol 40',"DRC-2, 40', concentration 10",36%
same,% inhibition Apol 40',"DRC-2, 40', concentration 20",42%
same,% inhibition Apol 40',"DRC-2, 40', concentration 40",53%
same,% inhibition Apol 40',"DRC-2, 40', concentration 80",56%
same,% inhibition ApPOL 90',"DRC-2, 90', concentration 2.5",4%
same,% inhibition ApPOL 90',"DRC-2, 90', concentration 5",4%
same,% inhibition ApPOL 90',"DRC-2, 90', concentration 10",29%
same,% inhibition ApPOL 90',"DRC-2, 90', concentration 20",38%
same,% inhibition ApPOL 90',"DRC-2, 90', concentration 40",54%
same,% inhibition ApPOL 90',"DRC-2, 90', concentration 80",62%
same,% inhibition apPOL 180',"DRC-2, 180', concentration 2.5",-3%
same,% inhibition apPOL 180',"DRC-2, 180', concentration 5",-6%
same,% inhibition apPOL 180',"DRC-2, 180', concentration 10",14%
same,% inhibition apPOL 180',"DRC-2, 180', concentration 20",21%
same,% inhibition apPOL 180',"DRC-2, 180', concentration 40",46%
same,% inhibition apPOL 180',"DRC-2, 180', concentration 80",61%
same,% inhibition ApPOL 90',conc 2.5 (unit not given); 90'; DRC-2,4%
same,% inhibition ApPOL 90',conc 5 (unit not given); 90'; DRC-2,4%
same,% inhibition Apo pol 5',conc 10 (unit not given); 5'; DRC-2,38%
same,% inhibition ApPOL 90',conc 20 (unit not given); 90'; DRC-2,38%
same,DNA Pol,"primary screen hit value, DNA Pol (186 hits); 90 min, 10 µM",57
